Laboratory results reported in the CheMixHub viscosity set.

Assay: xn = mol fraction of the nth substance listed

C=CC#N + CO
viscosity [mPa·s], 101.33 kPa
Details | x1 = 0.1021 | x1 = 0.2197 | x1 = 0.302 | x1 = 0.4017 | x1 = 0.5035 | x1 = 0.6614 | x1 = 0.6991 | x1 = 0.7966 | x1 = 0.8985
298.15 K | 0.483 | 0.435 | 0.41 | 0.388 | 0.367 | 0.351 | 0.346 | 0.34 | 0.338
303.15 K | 0.453 | 0.41 | 0.387 | 0.367 | 0.354 | 0.337 | 0.329 | 0.325 | 0.322
308.15 K | 0.428 | 0.387 | 0.366 | 0.348 | 0.331 | 0.318 | 0.315 | 0.311 | 0.309

CC(=O)CC(C)=O + CO
303.15 K, 101 kPa
Details | viscosity [mPa·s]
x1 = 0.0502 | 0.51
x1 = 0.1002 | 0.516
x1 = 0.3002 | 0.547
x1 = 0.5 | 0.579
x1 = 0.6983 | 0.611
x1 = 0.9004 | 0.645
x1 = 0.9511 | 0.655

CCC(C)(C)O + CO
298.15 K, 101.33 kPa
Details | viscosity [mPa·s]
x2 = 0.1504 | 3.673
x2 = 0.2963 | 3.295
x2 = 0.3807 | 2.941
x2 = 0.4164 | 2.789
x2 = 0.4914 | 2.41
x2 = 0.6011 | 1.88
x2 = 0.7145 | 1.404
x2 = 0.7989 | 1.074
x2 = 0.8988 | 0.788

CCCCC(C)O (configuration not stated) + CO
298.15 K, 101.33 kPa
Details | viscosity [mPa·s]
x2 = 0.1062 | 3.747
x2 = 0.2053 | 3.337
x2 = 0.3128 | 2.892
x2 = 0.412 | 2.43
x2 = 0.5053 | 2.04
x2 = 0.6071 | 1.647
x2 = 0.703 | 1.315
x2 = 0.8146 | 0.9858
x2 = 0.9006 | 0.7707

Cn1ccnc1 + CO
viscosity [mPa·s]
Details | 298.15 K | 308.15 K | 318.15 K
100 kPa, x1 = 0.0511 | 0.6235 | 0.5549 | 0.4923
100 kPa, x1 = 0.1008 | 0.7071 | 0.6136 | 0.5376
100 kPa, x1 = 0.1961 | 0.8597 | 0.7399 | 0.6379
100 kPa, x1 = 0.279 | 0.9763 | 0.8372 | 0.7265
100 kPa, x1 = 0.3965 | 1.159 | 0.9854 | 0.849
100 kPa, x1 = 0.5013 | 1.298 | 1.098 | 0.942
100 kPa, x1 = 0.6101 | 1.429 | 1.203 | 1.029
100 kPa, x1 = 0.6941 | 1.514 | 1.277 | 1.088
100 kPa, x1 = 0.7955 | 1.607 | 1.348 | 1.151
100 kPa, x1 = 0.8414 | 1.645 | 1.377 | 1.174
100 kPa, x1 = 0.9501 | 1.727 | 1.445 | 1.23
101 kPa, x1 = 0.0502 | – | 0.5358 | –
101 kPa, x1 = 0.1011 | – | 0.5959 | –
101 kPa, x1 = 0.2 | – | 0.7153 | –
101 kPa, x1 = 0.3006 | – | 0.8325 | –
101 kPa, x1 = 0.4 | – | 0.9415 | –
101 kPa, x1 = 0.4999 | – | 1.039 | –
101 kPa, x1 = 0.5999 | – | 1.128 | –
101 kPa, x1 = 0.7002 | – | 1.207 | –
101 kPa, x1 = 0.7985 | – | 1.278 | –
101 kPa, x1 = 0.8958 | – | 1.336 | –
101 kPa, x1 = 0.9433 | – | 1.359 | –

[2H]O[2H] + CO
298.15 K, 101 kPa
Details | viscosity [mPa·s]
x2 = 0.0449 | 1.386
x2 = 0.0748 | 1.535
x2 = 0.1437 | 1.783
x2 = 0.2044 | 1.893
x2 = 0.3143 | 1.872
x2 = 0.4238 | 1.711

Cc1ccc(C(C)C)cc1 + COC(C)(C)C
298.15 K, 101.33 kPa
Details | viscosity [mPa·s]
x2 = 0.0616 | 0.7751
x2 = 0.1556 | 0.7225
x2 = 0.3301 | 0.6338
x2 = 0.4987 | 0.5524
x2 = 0.5665 | 0.5253
x2 = 0.6911 | 0.4605
x2 = 0.7665 | 0.4272
x2 = 0.8304 | 0.3998
x2 = 0.8734 | 0.3814
x2 = 0.9298 | 0.3583
x2 = 0.9644 | 0.3467

C=CC#N + COC(C)=O
viscosity [mPa·s]
Details | 298.15 K | 303.15 K | 308.15 K
101.3 kPa, x1 = 0.1018 | – | 0.3427 | –
101.3 kPa, x1 = 0.1999 | – | 0.3428 | –
101.3 kPa, x1 = 0.3006 | – | 0.3407 | –
101.3 kPa, x1 = 0.4001 | – | 0.338 | –
101.3 kPa, x1 = 0.4946 | – | 0.3357 | –
101.3 kPa, x1 = 0.6012 | – | 0.3319 | –
101.3 kPa, x1 = 0.6955 | – | 0.3283 | –
101.3 kPa, x1 = 0.8014 | – | 0.3242 | –
101.3 kPa, x1 = 0.896 | – | 0.3198 | –
101.33 kPa, x1 = 0.0617 | 0.389 | 0.371 | 0.354
101.33 kPa, x1 = 0.1961 | 0.385 | 0.367 | 0.351
101.33 kPa, x1 = 0.3042 | 0.38 | 0.362 | 0.349
101.33 kPa, x1 = 0.4041 | 0.375 | 0.357 | 0.345
101.33 kPa, x1 = 0.5024 | 0.37 | 0.353 | 0.34
101.33 kPa, x1 = 0.6004 | 0.365 | 0.348 | 0.335
101.33 kPa, x1 = 0.7033 | 0.36 | 0.343 | 0.33
101.33 kPa, x1 = 0.8037 | 0.355 | 0.336 | 0.322
101.33 kPa, x1 = 0.8416 | 0.353 | 0.333 | 0.319

CCC(C)(C)O + COC(C)=O
298.15 K, 101.33 kPa
Details | viscosity [mPa·s]
x2 = 0.1632 | 1.792
x2 = 0.2443 | 1.33
x2 = 0.35 | 0.96
x2 = 0.448 | 0.787
x2 = 0.5246 | 0.677
x2 = 0.6222 | 0.57
x2 = 0.7221 | 0.496
x2 = 0.8153 | 0.434
x2 = 0.9107 | 0.395

CCC(C)(C)O + COc1ccccc1
viscosity [mPa·s], 101.33 kPa
Details | x2 = 0.1 | x2 = 0.2 | x2 = 0.2997 | x2 = 0.4001 | x2 = 0.5007 | x2 = 0.5997 | x2 = 0.7012 | x2 = 0.8005 | x2 = 0.9
303.15 K | 2.246 | 1.792 | 1.463 | 1.232 | 1.079 | 0.988 | 0.941 | 0.922 | 0.917
313.15 K | 1.623 | 1.339 | 1.125 | 0.976 | 0.885 | 0.831 | 0.808 | 0.799 | 0.792
323.15 K | 1.206 | 1.023 | 0.885 | 0.798 | 0.751 | 0.73 | 0.719 | 0.709 | 0.697

CN(C)c1ccccc1 + COc1ccccc1
viscosity [mPa·s], 101 kPa
Details | x1 = 0.1072 | x1 = 0.2092 | x1 = 0.3052 | x1 = 0.406 | x1 = 0.5082 | x1 = 0.6053 | x1 = 0.6916 | x1 = 0.7895 | x1 = 0.8939
293.15 K | 1.123 | 1.171 | 1.21 | 1.247 | 1.281 | 1.309 | 1.331 | 1.349 | 1.359
298.15 K | 1.039 | 1.083 | 1.124 | 1.159 | 1.191 | 1.22 | 1.241 | 1.255 | 1.27
303.15 K | 0.957 | 0.994 | 1.032 | 1.064 | 1.092 | 1.116 | 1.135 | 1.142 | 1.158
308.15 K | 0.887 | 0.917 | 0.949 | 0.98 | 1.004 | 1.025 | 1.036 | 1.042 | 1.056
313.15 K | 0.811 | 0.838 | 0.866 | 0.897 | 0.92 | 0.936 | 0.947 | 0.955 | 0.969
318.15 K | 0.767 | 0.791 | 0.815 | 0.845 | 0.869 | 0.883 | 0.889 | 0.898 | 0.911
323.15 K | 0.709 | 0.728 | 0.751 | 0.778 | 0.8 | 0.811 | 0.814 | 0.823 | 0.836

C=CC#N + CS(C)=O
303.15 K, 101.3 kPa
Details | viscosity [mPa·s]
x1 = 0.102 | 1.529
x1 = 0.2051 | 1.288
x1 = 0.3025 | 1.096
x1 = 0.3994 | 0.9277
x1 = 0.5057 | 0.771
x1 = 0.6018 | 0.6508
x1 = 0.7045 | 0.5395
x1 = 0.8066 | 0.4478
x1 = 0.8999 | 0.3757

CC(=O)CC(C)=O + CS(C)=O
303.15 K, 101 kPa
Details | viscosity [mPa·s]
x2 = 0.1118 | 0.819
x2 = 0.2207 | 0.9187
x2 = 0.3269 | 1.032
x2 = 0.4303 | 1.117
x2 = 0.5312 | 1.209
x2 = 0.6296 | 1.302
x2 = 0.7256 | 1.427

O=C1c2ccccc2C(=O)C1(O)O + C[N+](C)(C)CCO.[Cl-]
Details | viscosity [mPa·s]
323.15 K, 100 kPa, x2 = 0.571 | 30500

C=CC#N + Cc1cc(C)cc(C)c1
307.4 K, 101.33 kPa
Details | viscosity [mPa·s]
x2 = 0.121 | 0.551
x2 = 0.3367 | 0.495
x2 = 0.5736 | 0.424
x2 = 0.649 | 0.406
x2 = 0.7535 | 0.373
x2 = 0.9118 | 0.332

CC(CC(C)(C)C)CC(C)(C)C + Cc1cc(C)cc(C)c1
viscosity [mPa·s], 102 kPa
Details | x2 = 0.1002 | x2 = 0.2001 | x2 = 0.3009 | x2 = 0.4006 | x2 = 0.4977 | x2 = 0.6 | x2 = 0.7 | x2 = 0.8001 | x2 = 0.9001
293.15 K | 1.22 | 1.13 | 1.05 | 0.972 | 0.908 | 0.848 | 0.805 | 0.761 | 0.727
303.15 K | 1.03 | 0.96 | 0.893 | 0.837 | 0.789 | 0.738 | 0.697 | 0.658 | 0.63
313.15 K | 0.892 | 0.831 | 0.782 | 0.732 | 0.691 | 0.65 | 0.614 | 0.58 | 0.555
323.15 K | 0.781 | 0.738 | 0.693 | 0.649 | 0.613 | 0.578 | 0.546 | 0.517 | 0.494
